Source: PMC9822074, “Triterpenic Acid Amides as Potential Inhibitors of the SARS-CoV-2 Main Protease” (Molecules, 2022)

Molecular target: T1, SARS-CoV-2 main protease (Mpro, 3CLpro) (Severe acute respiratory syndrome coronavirus 2, UniProt P0DTD1)
T1 construct: gene rep
Assay: FRET peptide cleavage assay
Type: biochemical
Description: FRET peptide cleavage assay on SARS-CoV-2 main protease (Mpro, 3CLpro)

| Compound | IC50 |
| --- | --- |
| CCO[C@@H](Cc1ccc(OCCc2ccc(OCCNC(=O)[C@]34CC[C@@H](C)[C@H](C)[C@H]3C3=CC[C@@H]5[C@@]6(C)C[C@@H](O)[C@H](O)C(C)(C)[C@@H]6CC[C@@]5(C)[C@]3(C)CC4)cc2)cc1)C(=O)O [1e] | 25 ± 3 µM |
| CCO[C@@H](Cc1ccc(OCCc2ccc(OCCNC(=O)[C@]34CC[C@@H](C(C)C)[C@@H]3[C@H]3CC[C@@H]5[C@@]6(C)CCC(=O)C(C)(C)[C@@H]6CC[C@@]5(C)[C@]3(C)CC4)cc2)cc1)C(=O)O [1b] | 100 ± 5 µM |
| CCO[C@@H](Cc1ccc(OCCc2ccc(OCCNC(=O)[C@]34CC[C@@H](C)[C@H](C)[C@H]3C3=CC[C@@H]5[C@@]6(C)CC[C@H](O)C(C)(C)[C@@H]6CC[C@@]5(C)[C@]3(C)CC4)cc2)cc1)C(=O)O [1d] | 100 ± 5 µM |
| C=C(C)[C@@H]1CC[C@]2(C(=O)NCCOc3ccc(CCOc4ccc(C[C@H](OCC)C(=O)O)cc4)cc3)CC[C@]3(C)[C@H](CC[C@@H]4[C@@]5(C)CCC(=O)C(C)(C)[C@@H]5CC[C@]43C)[C@@H]12 [1a] | 100 ± 5 µM |
